From US7718651B2, “Inhibitors of FtsZ and uses thereof” (priority 2002, dated 2010)

Test system: M. tuberculosis H37Rv
Assay: microbe, parasite or virus in culture
Type: cell-based
Settings: M. tuberculosis H37Rv, screen concentration 12.5 g/ml [sic], Table 8

Point of comparison: `CCOC(=O)Nc1nc(NC(=O)OCC)c2c(c1N)NC(C)C(c1ccccc1)=N2` (stereo not shown) [Compound A194], “% Inh” value 0%. Against it:
- CCCCC(=O)C(C)Nc1cc(NC(=O)OC)nc(N)c1[N+](=O)[O-] (stereo not shown) [Compound A180] — higher, 3%
- CCCCC(O)C(C)Nc1cc(NC(=O)OCC)nc(N)c1N (stereo not shown) [Compound A181] — higher, 3%
- CCOC(=O)Nc1cc(NC/C(=N/O)c2ccc(OC)cc2)c([N+](=O)[O-])c(N)n1 [Compound A182] — higher, 2%
- CCOC(=O)Nc1cc(NC(C)C(=O)c2ccc(O)cc2)c([N+](=O)[O-])c(N)n1 (stereo not shown) [Compound A183] — higher, 2%
- CCOC(=O)Nc1cc(Cl)cc(NC(=O)OCC)n1 [Compound A185] — higher, 2%
- CCOC(=O)Nc1cc(NC(C)/C(=N/O)c2ccc(O)cc2)c([N+](=O)[O-])c(N)n1 (stereo not shown) [Compound A186] — higher, 1%
- CCOC(=O)Nc1cc(Cl)c2ncc(-c3ccc(Cl)cc3)nc2n1 [Compound A187] — higher, 1%
- O=C(Nc1cc(Cl)cc(NC(=O)OCc2ccccc2)n1)OCc1ccccc1 [Compound A188] — higher, 1%
- CCOC(=O)Nc1cc2c(c(N)n1)N=C(c1cccc(OC)c1)CO2 [Compound A190] — the same, 0%
- CCOC(=O)Nc1cc2c(c(N)n1)N=C(c1ccc(OC)cc1)CO2 [Compound A192] — the same, 0%
- CCOC(=O)Nc1cc2c(c(N)n1)N=C(c1ccc(OC)c(OC)c1)CO2 [Compound A193] — the same, 0%
- CCOC(=O)Nc1cc2[nH]c(=O)c(-c3ccccc3)nc2c(NC(c2ccccc2)c2ccccc2)n1 [Compound A195] — the same, 0%
- CCOC(=O)Nc1cc2[nH]c(=O)c(-c3ccccc3)nc2c(N)n1 [Compound A196] — the same, 0%
- CCOC(=O)Nc1cc2c(c(N)n1)N=C(c1ccc(O)cc1)C(C)N2 (stereo not shown) [Compound A197] — the same, 0%
- CCOC(=O)Nc1cc(N[C@H](C)C(=O)c2ccccc2)c([N+](=O)[O-])c(N)n1 [Compound A198] — the same, 0%
- CCOC(=O)Nc1cc2c3c(n1)[nH]c(=S)n3c(=S)n2N [Compound A199] — the same, 0%
- CCOC(=O)Nc1cc2c([nH]c(=S)n2N)c(N)n1 [Compound A200] — the same, 0%
- COC(=O)Nc1cc(Cl)cc(NC(=O)OC)n1 [Compound A201] — the same, 0%
- CCOC(=O)Nc1nc(NC(=O)OCC)c([N+](=O)[O-])c(Cl)c1[N+](=O)[O-] [Compound A202] — the same, 0%
- CCOC(=O)Nc1cc2[nH]cnc2c(Cl)n1 [Compound A203] — the same, 0%
- CCOC(=O)Nc1cc(N(C)/N=C/c2ccccc2)c([N+](=O)[O-])c(N)n1 [Compound A204] — the same, 0%
- CCOC(=O)Nc1cc(NNC=O)c([N+](=O)[O-])c(N)n1 [Compound A205] — the same, 0%
- CCOC(=O)Nc1cc2[nH]nnc2c(Cl)n1 [Compound A206] — the same, 0%
- CCOC(=O)Nc1ccccn1 [Compound A207] — the same, 0%
- CCOC(=O)Nc1cc(NCC(=O)c2ccc(C)c(C)c2)c([N+](=O)[O-])c(N)n1 [Compound A208] — the same, 0%
- CCOC(=O)Nc1cc(N(C)N)c([N+](=O)[O-])c(N)n1 [Compound A209] — the same, 0%
- CCOC(=O)Nc1cc(NC/C(=N/O)c2ccc(C)cc2)c([N+](=O)[O-])c(N)n1 [Compound A210] — the same, 0%
- CCOC(=O)Nc1cc(NCC(=O)c2ccc(F)cc2)c([N+](=O)[O-])c(N)n1 [Compound A211] — the same, 0%
- CCOC(=O)Nc1cc(NC/C(=N/O)c2ccc(OC)c(OC)c2OC)c([N+](=O)[O-])c(N)n1 [Compound A212] — the same, 0%
- CCOC(=O)Nc1cc2c(c(N)n1)[N+](=O)OC(c1ccccc1)N[N-]2 (stereo not shown) [Compound A214] — the same, 0%
- CCOC(=O)Nc1cc(Cl)c2nn[nH]c2n1 [Compound A215] — the same, 0%
- CCOC(=O)Nc1cc(NC(c2ccccc2)c2ccccc2)c2nc[nH]c2n1 [Compound A216] — the same, 0%
- CCOC(=O)Nc1cc(N)c2nc[nH]c2n1 [Compound A217] — the same, 0%
- CCOC(=O)Nc1cc(N)c2nnsc2n1 [Compound A218] — the same, 0%
- CCOC(=O)Nc1cc2[nH]c(-c3ccccc3)nc2c(Cl)n1 [Compound A219] — the same, 0%
- CCOC(=O)Nc1cc(NCC(=O)c2ccc([N+](=O)[O-])cc2)c([N+](=O)[O-])c(N)n1 [Compound A220] — the same, 0%
- CCOC(=O)Nc1cc(NC/C(=N/O)c2ccc(C(F)(F)F)cc2)c([N+](=O)[O-])c(N)n1 [Compound A221] — the same, 0%
- CCOC(=O)Nc1cc(NCC(=O)c2ccc(C(F)(F)F)cc2)c([N+](=O)[O-])c(N)n1 [Compound A222] — the same, 0%
- CCOC(=O)Nc1ccc(/N=C/c2ccccc2)cn1 [Compound A223] — the same, 0%
- CCOC(=O)Nc1cc2c(c(N)n1)N=C(c1ccccc1)CO2 [Compound A224] — the same, 0%
- CCOC(=O)Nc1cc2c(c(N)n1)N=C(c1ccc([N+](=O)[O-])cc1)CO2 [Compound A225] — the same, 0%
- CCOC(=O)Nc1cc2c(c(N)n1)N=C(c1ccc(Cl)cc1)CO2 [Compound A226] — the same, 0%
- CCOC(=O)Nc1cc2c(c(N)n1)N=C(c1cc(OC)c(OC)c(OC)c1)CO2 [Compound A227] — the same, 0%
- CCOC(=O)Nc1cc2oc(=O)c(-c3ccccc3)nc2c(N)n1 [Compound A228] — the same, 0%
- CCOC(=O)Nc1cc2c(c(NC(=O)CBr)n1)N=C(c1ccccc1)CO2 [Compound A229] — the same, 0%
- CCOC(=O)Nc1cc2c(c(/N=C/N(C)C)n1)N=C(c1ccccc1)CO2 [Compound A230] — the same, 0%
- CCOC(=O)Nc1cc(NC/C(=N/O)c2cccc(OC)c2)c([N+](=O)[O-])c(N)n1 [Compound A231] — the same, 0%
- CCOC(=O)Nc1cc(NCC(O)CN(C)C)c([N+](=O)[O-])c(N)n1 (stereo not shown) [Compound A232] — the same, 0%
- CCOC(=O)Nc1cc(NCC(C)CN(C)c2ccc(OC)cc2)c([N+](=O)[O-])c(N)n1 (stereo not shown) [Compound A233] — the same, 0%
- CCOC(=O)Nc1cc(Cl)c2nc(-c3ccccc3)[nH]c2n1 [Compound A234] — the same, 0%
- CCOC(=O)Nc1cc(NC/C(=N/O)c2ccccc2)c([N+](=O)[O-])c(N)n1 [Compound A235] — the same, 0%
- CCOC(=O)Nc1ccc(N)c(N)n1 [Compound A236] — the same, 0%
- CCOC(=O)Nc1cc(NCC(=O)c2ccc(OC)cc2)c([N+](=O)[O-])c(N)n1 [Compound A237] — the same, 0%
- CCOC(=O)Nc1cc(NC/C(=N/O)c2ccc([N+](=O)[O-])cc2)c([N+](=O)[O-])c(N)n1 [Compound A238] — the same, 0%
- CCOC(=O)Nc1cc(NC/C(=N/O)c2ccc(Cl)cc2)c([N+](=O)[O-])c(N)n1 [Compound A239] — the same, 0%
- CCOC(=O)Nc1cc(NCC(=O)c2ccc(Cl)cc2)c([N+](=O)[O-])c(N)n1 [Compound A240] — the same, 0%
- CCOC(=O)Nc1cc2c([nH]c(=S)n2/N=C/c2ccc3c(c2)OCO3)c(N)n1 [Compound A241] — the same, 0%
- CCOC(=O)Nc1cc2c(ncn2/N=C/c2ccc(OC)cc2)c(N)n1 [Compound A242] — the same, 0%
- CCOC(=O)Nc1cc(NC(C)CCCN(CC)CC)c([N+](=O)[O-])c(N)n1 (stereo not shown) [Compound A243] — the same, 0%
- CCOC(=O)Nc1cc(NCc2ccc(S(N)(=O)=O)cc2)c([N+](=O)[O-])c(N)n1 [Compound A244] — the same, 0%
- CCOC(=O)Nc1cc(NCCc2ccc(S(N)(=O)=O)cc2)c2ncc(C)nc2n1 [Compound A251] — the same, 0%
- CCOC(=O)Nc1cc(NCCc2ccc(S(=O)(=O)N(CC)CC)cc2)c2nccnc2n1 [Compound A252] — the same, 0%
- CCOC(=O)Nc1cc(NC(C)CCCN(CC)CC)c2nccnc2n1 (stereo not shown) [Compound A253] — the same, 0%
- CCOC(=O)Nc1cc(NC(C)CCCN(CC)CC)c2ncc(C)nc2n1 (stereo not shown) [Compound A254] — the same, 0%
- CCOC(=O)Nc1cc(NCCc2ccc(S(=O)(=O)N(CC)CC)cc2)c2ncc(C)nc2n1 [Compound A255] — the same, 0%
- CCOC(=O)Nc1cc(Nc2ccc(Cl)cc2)c([N+](=O)[O-])c(N)n1 [Compound A256] — the same, 0%
- CCOC(=O)Nc1cc(Nc2ccc(Cl)cc2)c2nc(-c3ccccc3)c(-c3ccccc3)nc2n1 [Compound A257] — the same, 0%
- CCOC(=O)Nc1cc(Nc2ccc(Cl)cc2)c2ncc(-c3ccc(Cl)cc3)nc2n1 [Compound A258] — the same, 0%
- CCOC(=O)Nc1cc(NCCc2ccc(S(=O)(=O)N(CC)CC)cc2)c2ncc(-c3ccc(Cl)cc3)nc2n1 [Compound A259] — the same, 0%
- CCOC(=O)Nc1cc(Nc2ccc(Cl)cc2)c2ncc(C)nc2n1 [Compound A260] — the same, 0%
- CCOC(=O)Nc1cc(NC(c2ccccc2)c2ccccc2)c2ncc(-c3ccc(Cl)cc3)nc2n1 [Compound A261] — the same, 0%
- CCOC(=O)Nc1cc(N)c2ncc(-c3ccc(Cl)cc3)nc2n1 [Compound A262] — the same, 0%
- CCOC(=O)Nc1cc(NC(c2ccccc2)c2ccccc2)c(/N=C/c2ccc(Cl)cc2Cl)c(N)n1 [Compound A263] — the same, 0%
- CCOC(=O)Nc1cc(NC(c2ccccc2)c2ccccc2)c([N+](=O)[O-])c(N)n1 [Compound A264] — the same, 0%
- CCOC(=O)Nc1cc(NC(c2ccccc2)c2ccccc2)c2nc(-c3cc(OC)c(OC)c(OC)c3)cnc2n1 [Compound A265] — the same, 0%
- CCCCOC(=O)Nc1cc(NC(c2ccccc2)c2ccccc2)c2nc(-c3cc(OC)c(OC)c(OC)c3)c(-c3cc(OC)c(OC)c(OC)c3)nc2n1 [Compound A267] — the same, 0%
- CCOC(=O)Nc1cc(Cl)c2nc(-c3cc(OC)c(OC)c(OC)c3)c(-c3cc(OC)c(OC)c(OC)c3)nc2n1 [Compound A268] — the same, 0%
- CCOC(=O)Nc1cc(NC(C)CCCN(CC)CC)c([N+](=O)[O-])c(N)n1.Cl (stereo not shown) [Compound A269] — the same, 0%
- CCOC(=O)Nc1cc(NC(c2ccccc2)c2ccccc2)c2ncc(=O)[nH]c2n1 [Compound A270] — the same, 0%
- CCOC(=O)Nc1cc(NCC(O)CN)c([N+](=O)[O-])c(NC(=O)OCC)n1 (stereo not shown) [Compound A271] — the same, 0%
- CCOC(=O)Nc1cc(N)c([N+](=O)[O-])c(NC(=O)OCC)n1 [Compound A272] — the same, 0%
